Experimental data published in patent publication US9006257B2, “Bicyclic compounds as mPGES-1 inhibitors” (Glenmark Pharmaceuticals S.A., priority 2012, dated 2015).

Molecular target: T1, Recombinant human mPGES-1 (Homo sapiens, UniProt O14684)
T1 construct: made in house; host or cells: CHO cells
T1 sequence (O14684 1-152): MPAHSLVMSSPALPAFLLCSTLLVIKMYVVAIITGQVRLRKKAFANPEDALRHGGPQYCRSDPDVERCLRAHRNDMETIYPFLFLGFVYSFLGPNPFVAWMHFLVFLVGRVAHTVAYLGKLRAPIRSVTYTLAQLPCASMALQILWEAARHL
Assay: In-vitro mPGES-1 inhibitor screening (inhibition of PGE2 formation from PGH2, HTRF detection)
Type: biochemical
Conditions: for inhibition at 1 µM: 1 μM test compound, read-out: Percentage inhibition at 1 μM; for inhibition at 1 µM / inhibition at 10 µM: crude microsomal fraction, 15 μM PGH2; for inhibition at 10 µM: 10 μM test compound, read-out: Percentage inhibition at 10 μM; for IC50: class symbol, concentration response curve
Source text: In-Vitro Protocol for Screening of mPGES-1 Inhibitors:
mPGES-1 (microsomal prostaglandin E synthase-1) is a microsomal enzyme that converts endoperoxide substrate PGH2 (prostaglandin H2) to product PGE2 (prostaglandin E2) by isomerization in the presence of reduced glutathione (GSH). mPGES-1 inhibitors were screened by assessing their ability to inhibit formation of PGE2 from PGH2 in presence of mPGES-1 using an anti-PGE2 antibody based detection method. Recombinant human mPGES-1 was generated in-house by expression in CHO cells (Ouellet M et al. (2002), Protein Expression and Purification 26: 489-495). The assay was set up using crude microsomal fractions at protein concentration of 40-60 μg/mL. Test compounds were prepared in 100% dimethyl sulfoxide (DMSO) to obtain 20 mM stock solution and then diluted using assay buffer comprising 0.1 M Potassium phosphate buffer with 2 mM EDTA. The final concentration of DMSO in reaction was 0.5% (v/v). Negative controls were comprised of all assay reagents except the enzyme. Positive controls were comprised of the enzyme reaction in the absence of any inhibitor. Test compounds were incubated for 10 minutes in assay buffer containing 2.5 mM GSH and mPGES-1 enzyme followed by addition of PGH2 at a concentration of 15 μM for 1 minute. The reaction was stopped by addition of Stannous chloride (11 mg/ml) and PGE2 levels were measured (Masse F et al. (2005), Journal of Biomolecular Screening 10(6) 599-605., Goedken R E et al. (2008), Journal of Biomolecular Screening 13(7): 619-625) by HTRF kit (CisBio)).
Inhibition of mPGES-1 enzyme activity was measured using the percent of reaction occurring in the positive control. Concentration response curves were plotted using percent inhibition of maximum enzyme reaction. The IC50 value was calculated from the concentration response curve by nonlinear regression analysis using GraphPad PRISM software.

CC(C)(C)C(=O)NCc1ccc(Cl)c(C(=O)Nc2cccc3c(Oc4ccc(C(F)(F)F)cc4)nccc23)c1 [Example-46, 2-Chloro-5-(pivalamidomethyl)-N-(1-(4-(trifluoromethyl)phenoxy)isoquinolin-5-yl)benzamide]
inhibition at 1 µM: 89.4%
inhibition at 10 µM: 97.7%
IC50: < 50 nM

CC(C)(C)C(=O)NCc1ccc(Cl)c(C(=O)Nc2cccc3c(O[C@H]4CC[C@@H](C(F)(F)F)CC4)nccc23)c1 [Example-47, 2-Chloro-5-(pivalamidomethyl)-N-(1-(((1s,4s)-4-(trifluoromethyl)cyclohexyl)oxy)isoquinolin-5-yl)benzamide]
inhibition at 1 µM: 85.1%
inhibition at 10 µM: 97.7%
IC50: > 100 nM

CC(C)(C)C(=O)NCc1ccc(Cl)c(C(=O)Nc2cccc3c(Oc4ccc(F)c(C(F)(F)F)c4)nccc23)c1 [Example-48, 2-Chloro-N-(1-(4-fluoro-3-(trifluoromethyl)phenoxy)isoquinolin-5-yl)-5-(pivalamidomethyl)benzamide]
inhibition at 1 µM: 91.1%
inhibition at 10 µM: 95.2%
IC50: < 50 nM

COc1c(CNC(=O)C(C)(C)C)ccc(Cl)c1C(=O)Nc1cccc2c(Oc3cccc(C(F)(F)F)c3)ncnc12 [Example-49, 6-Chloro-2-methoxy-3-(pivalamidomethyl)-N-(4-(3-(trifluoromethyl)phenoxy)quinazolin-8-yl)benzamide]
inhibition at 1 µM: 91.9%
inhibition at 10 µM: 91%
IC50: < 50 nM

CC(C)(C)C(=O)NCc1ccc(Cl)c(C(=O)Nc2cccc3c(O[C@H]4CC[C@H](C(F)(F)F)CC4)nccc23)c1F [Example-50, 6-Chloro-2-fluoro-3-(pivalamidomethyl)-N-(1-(((1r,4r)-4-(trifluoromethyl)cyclohexyl)oxy)isoquinolin-5-yl)benzamide]
inhibition at 1 µM: 99.2%
inhibition at 10 µM: 99.6%
IC50: < 50 nM

CC(C)(C)C(=O)NCc1ccc(Cl)c(C(=O)Nc2cccc3c(Oc4ccc(F)c(C(F)(F)F)c4)ccnc23)c1F [Example-51, 6-Chloro-2-fluoro-N-(4-(4-fluoro-3-(trifluoromethyl)phenoxy)quinolin-8-yl)-3-(pivalamidomethyl)benzamide]
inhibition at 1 µM: 99.3%
inhibition at 10 µM: 99.7%
IC50: < 50 nM

CC(C)(C)C(=O)NCc1ccc(Cl)c(C(=O)Nc2cccc3c(Oc4ccc(F)c(C(F)(F)F)c4)ncnc23)c1F [Example-52, 6-Chloro-2-fluoro-N-(4-(4-fluoro-3-(trifluoromethyl)phenoxy)quinazolin-8-yl)-3-(pivalamidomethyl)benzamide]
inhibition at 1 µM: 94.5%
inhibition at 10 µM: 95.3%
IC50: < 50 nM

CC(C)(C)C(=O)NCc1ccc(Cl)c(C(=O)Nc2cccc3c(Oc4ccc(C(F)(F)F)cc4)ccnc23)c1F [Example-53, 6-Chloro-2-fluoro-3-(pivalamidomethyl)-N-(4-(4-(trifluoromethyl)phenoxy)quinolin-8-yl)benzamide]
inhibition at 1 µM: 98.3%
inhibition at 10 µM: 98.3%
IC50: < 50 nM

Cc1nc(NC2CCC(C)(C)CC2)c2cccc(NC(=O)c3c(Cl)ccc(CNC(=O)C(C)(C)C)c3F)c2n1 [Example-54, 6-Chloro-N-(4-((4,4-dimethylcyclohexyl)amino)-2-methylquinazolin-8-yl)-2-fluoro-3-(pivalamidomethyl)benzamide]
inhibition at 1 µM: 98.2%
inhibition at 10 µM: 97.3%
IC50: < 50 nM

CC(C)(C)C(=O)NCc1ccc(Cl)c(C(=O)Nc2cccc3cccnc23)c1F [Example-55, 6-Chloro-2-fluoro-3-(pivalamidomethyl)-N-(quinolin-8-yl)benzamide]
inhibition at 1 µM: 94.1%
inhibition at 10 µM: 99.8%
IC50: < 50 nM

Cc1nc(Oc2cccc(C(F)(F)F)c2)c2cccc(NC(=O)c3c(Cl)ccc(CNC(=O)C(C)(C)C)c3F)c2n1 [Example-56, 6-Chloro-2-fluoro-N-(2-methyl-4-(3-(trifluoromethyl)phenoxy)quinazolin-8-yl)-3-(pivalamidomethyl)benzamide]
inhibition at 1 µM: 97.9%
inhibition at 10 µM: 99.3%
IC50: 50 to 100 nM
